Like-named read-outs stand apart in the source and are kept apart here.
Tests used:
[1] = biological target: c-Kit (Homo sapiens (Human), UniProt P10721); assay: Inhibition of c-Kit kinase activity (HTRF KinEASE-TK); type: biochemical; conditions: biochemical
Procedure, shortened: (§1)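 Recombinant kinases (2 nM CSF1R and c-Kit, 10 nM PDGFRα/β, 2× working) preincubated 1 h with compound in 50 mM HEPES pH 7.4, 5 mM MgCl2 (c-Kit) or 10 mM (others), 2 mM MnCl2; 2× ATP: c-Kit 16 μM, PDGFRα 1 μM, PDGFRβ 40 μM, CSF1R 20 μM. 120 min reaction at rt; TR-FRET 665/620 nm; IC50 by 4-parameter fit.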

[2] = biological target: PDGFRα (Homo sapiens (Human), UniProt P16234); assay: Inhibition of PDGFRα kinase activity (HTRF KinEASE-TK); conditions: biochemical
Procedure, shortened: as §1

[3] = biological target: PDGFRβ (Homo sapiens (Human), UniProt P09619); assay: Inhibition of PDGFRβ kinase activity (HTRF KinEASE-TK); conditions: biochemical
Procedure, shortened: as §1

[4] = biological target: CSF1R (Homo sapiens (Human), UniProt P07333); assay: Inhibition of CSF1R kinase activity (HTRF KinEASE-TK); conditions: biochemical
Procedure, shortened: as §1

[5] = biological target: FLT3 (Homo sapiens (Human), UniProt P36888); assay: Inhibition of FLT3 kinase activity (HTRF KinEASE-TK); type: biochemical; conditions: biochemical
Description: Inhibition of c-Kit, PDGFRα, PDGFRβ, CSFIR and FLT3 Kinase Activity
Compounds were evaluated to determine the potency with which they inhibit the kinase activity of the following panel of tyrosine kinases: c-Kit (SignalChem, Product #: K06-11BG), PDGFRα (SignalChem, Product #: P12-18G), PDGFRβ (SignalChem, Product #: P13-11G), CSFIR (SignalChem, Product #: C74-11G) and FLT3 (Invitrogen, Product #: PR4666C). Activity was determined as a function of phosphorylated biotinylated TK peptide generated by the transfer of phosphate from ATP as measured by the use of the HTRF KinEASE-TK assay kit (Cisbio, Product #: 62TKOPEJ). Levels of phosphorylated biotinylated TK peptide (Part 61TKOBLC of KinEASE assay kit) are quantified by its capture by phosphor-TK-Antibody-Cryptate (Part of KinEASE assay kit) and XL665-labeled Streptavidin (Part 610SAXLG of KinEASE assay kit) followed by measurement of Time-Resolved Fluorescence Resonance Energy Transfer (TR-FRET) signal. On the day of the assay, compounds were solubilized in DMSO and dispensed into a 384-well white Opti-plate (PerkinElmer, catalog #6007290) to generate a 22 point 1:2 titration. Enzyme solution was prepared for each of the tyrosine kinases in 50 mM HEPES, pH 7.4, 5 mM MgCl2 for c-Kit or 10 mM MgCl2 for FLT3, CSFIR, PDGFRa and PDGFRβ, 2 mM MnCl2, 0.01% Brij-35 and 0.01% BSA. Working enzyme concentrations were prepared for c-Kit at 2 nM (2×), PDGFRa and PDGFRß at 10 nM (2×), CSFIR at 2 nM (2×) and FLT3 at 0.4 nM (2×). Five microliters of enzyme dilution of each tyrosine kinase were added to their respective 384-well white Opti-plate pre-dispensed with compound and allowed to incubate for 1 h at rt. Utilizing the same enzyme buffer recipe, 2x substrate mixes were prepared for each enzyme as follows: For c-Kit, 1.6 μM (2×) TK substrate and 16 μM (2×) ATP (Promega, catalog #V915). For PDGFRα, 3.2 μM TK substrate and 1 μM ATP. For PDGFRβ, 3.2 μM TK substrate and 40 μM ATP. For CSFIR, […] TK substrate and 20 μM ATP. For FLT3, 3.2 μM TK substrate and 100 μM ATP. Reactions were initiated by addition of 5 μL of the respective 2x substrate mix to each well of the plates containing the respective tyrosine kinase enzymes and were allowed to proceed for 120 minutes at rt, except for FLT3, the reaction time is 45 min. Following the reaction, 10 μL of detection mix consisting of 0.2 μM (2×) of Streptavidin-XL665 and 2 μM (2×) of TK-Antibody-Cryptate prepared in detection buffer (Part 62SDBRDF of KinEASE assay kit) was added and then allowed to incubate for 60 min. The TR-FRET signal was quantified by measuring the ratio of emission at 665 nm to 620 nm after excitation at 320 nm by reading on a PerkinElmer Envision multimode reader. Compound potencies (IC50 values) were determined using a standard 4-parameter non-linear regression fit.

[6] = test system: Phospho-KIT (Y703) in M07e cells; assay: Phospho-KIT (Y703) cellular assay in M07e cells; type: cell-based; conditions: M-07e, read-out: M07e Cell IC50
Procedure, shortened: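 Serum-starved M07e cells preincubated 50 min at 37° C with 11-point half-log compound titration, then stimulated 10 min with SCF at 90.9 ng/mL final. Fixed, permeabilized cells stained for phospho-KIT Y703 and read by flow cytometry (live-gated geometric mean); IC50 by 4-parameter fit normalized to DMSO and positive control.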

[7] = phospho-KIT (Y703), SCF-stimulated M07e cells

Sequence of PDGFRα (P16234 24-1089): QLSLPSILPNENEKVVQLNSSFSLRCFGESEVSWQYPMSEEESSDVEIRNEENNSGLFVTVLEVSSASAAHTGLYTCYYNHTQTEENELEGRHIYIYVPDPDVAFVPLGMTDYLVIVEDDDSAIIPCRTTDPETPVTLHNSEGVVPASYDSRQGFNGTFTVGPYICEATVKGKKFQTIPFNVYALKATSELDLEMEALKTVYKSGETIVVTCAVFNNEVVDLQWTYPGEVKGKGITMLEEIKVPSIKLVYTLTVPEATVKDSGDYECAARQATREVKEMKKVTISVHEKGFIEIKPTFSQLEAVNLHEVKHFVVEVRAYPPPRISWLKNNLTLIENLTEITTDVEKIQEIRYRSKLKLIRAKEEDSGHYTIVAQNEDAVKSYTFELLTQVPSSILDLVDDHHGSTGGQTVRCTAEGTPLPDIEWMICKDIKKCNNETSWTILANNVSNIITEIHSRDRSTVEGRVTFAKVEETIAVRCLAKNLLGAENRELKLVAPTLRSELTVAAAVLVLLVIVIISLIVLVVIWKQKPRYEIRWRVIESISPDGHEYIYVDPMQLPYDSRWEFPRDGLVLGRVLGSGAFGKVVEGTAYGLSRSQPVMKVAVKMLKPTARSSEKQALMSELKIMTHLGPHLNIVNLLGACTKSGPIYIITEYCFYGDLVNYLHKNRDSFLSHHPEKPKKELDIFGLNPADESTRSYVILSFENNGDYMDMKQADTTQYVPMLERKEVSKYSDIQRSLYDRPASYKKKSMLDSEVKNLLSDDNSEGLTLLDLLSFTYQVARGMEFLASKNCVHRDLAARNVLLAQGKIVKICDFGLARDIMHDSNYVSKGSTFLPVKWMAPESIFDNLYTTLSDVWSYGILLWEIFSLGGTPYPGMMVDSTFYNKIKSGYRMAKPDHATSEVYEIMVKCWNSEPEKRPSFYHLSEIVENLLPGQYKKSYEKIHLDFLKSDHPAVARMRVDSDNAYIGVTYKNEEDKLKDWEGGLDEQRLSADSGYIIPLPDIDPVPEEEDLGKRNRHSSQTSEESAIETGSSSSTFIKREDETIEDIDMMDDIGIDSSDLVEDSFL
Sequence of c-Kit (P10721 26-976): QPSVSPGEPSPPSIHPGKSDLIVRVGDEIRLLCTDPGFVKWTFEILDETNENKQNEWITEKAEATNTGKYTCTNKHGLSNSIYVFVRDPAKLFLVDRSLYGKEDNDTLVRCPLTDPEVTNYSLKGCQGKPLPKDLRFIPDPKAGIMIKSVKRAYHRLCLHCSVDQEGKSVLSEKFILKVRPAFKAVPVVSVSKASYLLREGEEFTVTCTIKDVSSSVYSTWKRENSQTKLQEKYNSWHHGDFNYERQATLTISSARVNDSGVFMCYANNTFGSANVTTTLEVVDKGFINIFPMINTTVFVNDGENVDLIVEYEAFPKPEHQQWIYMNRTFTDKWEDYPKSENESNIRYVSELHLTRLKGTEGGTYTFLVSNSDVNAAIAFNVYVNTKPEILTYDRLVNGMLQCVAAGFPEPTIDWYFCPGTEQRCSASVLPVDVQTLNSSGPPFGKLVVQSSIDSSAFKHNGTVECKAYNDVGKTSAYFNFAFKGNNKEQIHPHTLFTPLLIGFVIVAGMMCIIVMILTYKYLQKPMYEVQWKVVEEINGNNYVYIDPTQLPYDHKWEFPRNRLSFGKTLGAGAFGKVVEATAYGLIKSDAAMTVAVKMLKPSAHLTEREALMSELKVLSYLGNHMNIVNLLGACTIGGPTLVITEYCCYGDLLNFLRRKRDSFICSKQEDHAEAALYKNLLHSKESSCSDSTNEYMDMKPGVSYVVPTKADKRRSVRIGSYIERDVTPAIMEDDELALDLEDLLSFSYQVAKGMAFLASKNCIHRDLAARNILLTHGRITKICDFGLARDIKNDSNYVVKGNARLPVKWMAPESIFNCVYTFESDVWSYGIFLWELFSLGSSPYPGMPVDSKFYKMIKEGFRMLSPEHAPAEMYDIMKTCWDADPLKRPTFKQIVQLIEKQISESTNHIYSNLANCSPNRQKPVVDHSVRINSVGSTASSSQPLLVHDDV
Sequence of CSF1R (P07333 20-972): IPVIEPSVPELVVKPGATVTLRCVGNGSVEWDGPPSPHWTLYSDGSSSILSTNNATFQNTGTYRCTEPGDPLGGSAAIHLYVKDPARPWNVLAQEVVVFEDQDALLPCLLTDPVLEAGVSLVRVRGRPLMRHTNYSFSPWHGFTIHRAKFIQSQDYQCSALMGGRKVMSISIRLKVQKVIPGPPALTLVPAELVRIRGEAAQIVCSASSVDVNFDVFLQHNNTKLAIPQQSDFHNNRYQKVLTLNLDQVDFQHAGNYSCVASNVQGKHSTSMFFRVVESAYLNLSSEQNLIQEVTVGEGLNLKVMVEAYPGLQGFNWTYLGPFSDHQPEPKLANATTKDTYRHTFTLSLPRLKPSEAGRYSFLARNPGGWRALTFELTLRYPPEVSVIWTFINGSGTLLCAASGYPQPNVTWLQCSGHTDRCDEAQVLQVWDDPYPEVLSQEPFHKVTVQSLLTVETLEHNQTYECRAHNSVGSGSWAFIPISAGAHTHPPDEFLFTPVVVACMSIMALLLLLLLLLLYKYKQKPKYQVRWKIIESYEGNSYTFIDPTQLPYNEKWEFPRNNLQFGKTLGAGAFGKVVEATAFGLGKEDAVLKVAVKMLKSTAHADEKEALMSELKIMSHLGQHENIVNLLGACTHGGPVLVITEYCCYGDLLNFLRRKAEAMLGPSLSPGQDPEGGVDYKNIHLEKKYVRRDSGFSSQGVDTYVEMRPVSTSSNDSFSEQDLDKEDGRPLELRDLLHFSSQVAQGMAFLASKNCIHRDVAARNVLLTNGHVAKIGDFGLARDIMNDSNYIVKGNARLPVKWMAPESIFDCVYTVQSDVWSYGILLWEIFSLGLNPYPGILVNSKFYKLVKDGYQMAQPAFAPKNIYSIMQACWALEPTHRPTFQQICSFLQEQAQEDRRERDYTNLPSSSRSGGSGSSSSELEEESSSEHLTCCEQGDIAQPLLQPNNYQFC
Sequence of PDGFRβ (P09619 33-1106): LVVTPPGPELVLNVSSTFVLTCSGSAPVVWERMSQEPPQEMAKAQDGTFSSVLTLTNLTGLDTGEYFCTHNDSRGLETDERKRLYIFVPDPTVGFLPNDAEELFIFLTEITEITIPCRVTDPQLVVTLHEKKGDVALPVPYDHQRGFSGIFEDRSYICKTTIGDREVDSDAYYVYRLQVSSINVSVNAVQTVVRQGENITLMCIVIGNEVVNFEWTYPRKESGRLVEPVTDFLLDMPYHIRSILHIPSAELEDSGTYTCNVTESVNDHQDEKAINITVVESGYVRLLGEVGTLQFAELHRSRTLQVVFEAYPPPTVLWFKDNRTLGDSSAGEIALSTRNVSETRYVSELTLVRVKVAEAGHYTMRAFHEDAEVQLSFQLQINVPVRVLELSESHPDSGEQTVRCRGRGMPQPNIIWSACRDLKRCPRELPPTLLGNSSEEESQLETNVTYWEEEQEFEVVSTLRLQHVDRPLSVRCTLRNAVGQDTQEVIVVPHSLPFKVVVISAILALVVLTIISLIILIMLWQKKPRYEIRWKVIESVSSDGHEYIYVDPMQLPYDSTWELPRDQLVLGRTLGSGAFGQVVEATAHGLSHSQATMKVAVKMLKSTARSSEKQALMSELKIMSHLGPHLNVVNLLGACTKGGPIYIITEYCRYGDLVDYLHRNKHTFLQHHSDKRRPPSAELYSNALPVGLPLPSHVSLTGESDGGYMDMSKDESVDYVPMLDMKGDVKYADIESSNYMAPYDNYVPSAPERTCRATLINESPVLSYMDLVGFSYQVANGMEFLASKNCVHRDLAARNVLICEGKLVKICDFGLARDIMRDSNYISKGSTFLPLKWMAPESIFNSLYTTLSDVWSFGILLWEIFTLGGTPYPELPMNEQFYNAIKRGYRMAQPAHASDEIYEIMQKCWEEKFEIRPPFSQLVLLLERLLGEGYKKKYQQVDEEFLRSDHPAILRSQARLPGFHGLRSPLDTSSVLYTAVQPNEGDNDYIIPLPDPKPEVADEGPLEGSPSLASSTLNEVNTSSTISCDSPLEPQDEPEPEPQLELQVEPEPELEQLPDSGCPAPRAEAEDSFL
Sequence of FLT3 (P36888 27-993): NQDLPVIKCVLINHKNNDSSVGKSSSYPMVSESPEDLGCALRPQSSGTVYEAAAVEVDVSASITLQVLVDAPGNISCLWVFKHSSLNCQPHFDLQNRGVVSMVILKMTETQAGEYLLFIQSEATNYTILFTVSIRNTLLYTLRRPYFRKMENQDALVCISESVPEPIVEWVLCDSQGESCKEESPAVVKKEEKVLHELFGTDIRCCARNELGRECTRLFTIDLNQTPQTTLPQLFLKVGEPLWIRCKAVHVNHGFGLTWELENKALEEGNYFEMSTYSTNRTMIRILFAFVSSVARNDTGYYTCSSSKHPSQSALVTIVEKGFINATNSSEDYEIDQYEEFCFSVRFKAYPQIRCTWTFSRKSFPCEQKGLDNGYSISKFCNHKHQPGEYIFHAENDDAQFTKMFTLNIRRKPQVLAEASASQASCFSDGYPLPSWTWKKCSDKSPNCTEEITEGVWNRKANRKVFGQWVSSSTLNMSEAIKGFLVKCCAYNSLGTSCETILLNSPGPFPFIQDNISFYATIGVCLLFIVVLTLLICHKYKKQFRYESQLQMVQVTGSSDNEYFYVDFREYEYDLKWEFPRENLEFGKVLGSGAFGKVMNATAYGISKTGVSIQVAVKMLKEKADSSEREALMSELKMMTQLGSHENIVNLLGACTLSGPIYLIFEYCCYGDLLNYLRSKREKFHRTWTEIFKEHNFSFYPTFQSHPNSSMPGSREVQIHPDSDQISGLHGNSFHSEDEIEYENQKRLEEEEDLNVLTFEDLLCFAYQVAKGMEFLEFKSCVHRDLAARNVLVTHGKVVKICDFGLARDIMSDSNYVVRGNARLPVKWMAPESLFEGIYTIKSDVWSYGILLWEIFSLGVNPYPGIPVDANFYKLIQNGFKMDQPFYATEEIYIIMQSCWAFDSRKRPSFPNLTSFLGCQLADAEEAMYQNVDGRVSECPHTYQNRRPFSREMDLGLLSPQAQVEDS

| SMILES | IC50 [1] | IC50 [2] | IC50 [3] | IC50 [4] | IC50 [5] | IC50 [6, 7] | IC50 ([1]; HTRF KinEASE-TK) | IC50 ([4]; HTRF KinEASE-TK) | IC50 ([5]; HTRF KinEASE-TK) | IC50 ([6]; Phospho-KIT (Y703), M07e cells) | IC50 ([2]; HTRF KinEASE-TK) | IC50 ([3]; HTRF KinEASE-TK) |
| --- | --- | --- | --- | --- | --- | --- | --- | --- | --- | --- | --- | --- |
| Cc1cc(F)c(C(=O)Nc2ccc(CC3CC3)cn2)cc1NC(=O)c1cnc(N)s1 [Example 7, 2-Amino-N-[5-[[5-(cyclopropylmethyl)pyridin-2-yl]carbamoyl]-4-fluoro-2-methylphenyl]-1,3-thiazole-5-carboxamide] | < 0.1 µM | 0.1 to 1 µM | < 0.1 µM | 0.1 to 1 µM | > 1 µM | < 0.1 µM | – | – | – | – | – | – |
| Cc1cc(F)c(C(=O)Nc2ccc(OC(F)(F)F)cn2)cc1NC(=O)c1cnc(N)s1 [Example 8, 2-Amino-N-[4-fluoro-2-methyl-5-[[5-(trifluoromethoxy)pyridin-2-yl]carbamoyl]phenyl]-1,3-thiazole-5-carboxamide] | < 0.1 µM | 0.1 to 1 µM | 0.1 to 1 µM | 0.1 to 1 µM | > 1 µM | < 0.1 µM | – | – | – | – | – | – |
| Cc1cc(F)c(C(=O)Nc2ccc(OC(F)F)cn2)cc1NC(=O)c1cnc(N)s1 [Example 9, 2-Amino-N-[5-[[5-(difluoromethoxy)pyridin-2-yl]carbamoyl]-4-fluoro-2-methylphenyl]-1,3-thiazole-5-carboxamide] | < 0.1 µM | > 1 µM | 0.1 to 1 µM | 0.1 to 1 µM | > 1 µM | < 0.1 µM | – | – | – | – | – | – |
| COCc1ccc(NC(=O)c2cc(NC(=O)c3cnc(N)s3)c(C)cc2F)nc1 [Example 10, 2-Amino-N-[4-fluoro-5-[[5-(methoxymethyl)pyridin-2-yl]carbamoyl]-2-methylphenyl]-1,3-thiazole-5-carboxamide] | < 0.1 µM | > 1 µM | > 1 µM | > 1 µM | > 1 µM | < 0.1 µM | – | – | – | – | – | – |
| Cc1cc(F)c(C(=O)Nc2ccc(CC(F)(F)F)cn2)cc1NC(=O)c1cnc(N)s1 [Example 11, 2-Amino-N-[4-fluoro-2-methyl-5-[[5-(2,2,2-trifluoroethyl)pyridin-2-yl]carbamoyl]phenyl]-1,3-thiazole-5-carboxamide] | < 0.1 µM | 0.1 to 1 µM | < 0.1 µM | 0.1 to 1 µM | > 1 µM | < 0.1 µM | – | – | – | – | – | – |
| Cc1ncc(C(=O)Nc2cc(C(=O)Nc3cnc(OC4CC4)cn3)c(F)cc2C)s1 [Example 13, N-[5-[(5-Cyclopropyloxypyrazin-2-yl)carbamoyl]-4-fluoro-2-methylphenyl]-2-methyl-1,3-thiazole-5-carboxamide] | – | – | – | – | – | – | < 0.1 µM | > 1 µM | > 1 µM | < 0.1 µM | – | – |
| CCOc1cnc(NC(=O)c2cc(NC(=O)c3cnc(C)s3)c(C)cc2F)cn1 [Example 17, N-[5-[(5-Ethoxypyrazin-2-yl)carbamoyl]-4-fluoro-2-methylphenyl]-2-methyl-1,3-thiazole-5-carboxamide] | – | – | – | – | – | – | < 0.1 µM | > 1 µM | > 1 µM | < 0.1 µM | > 1 µM | > 1 µM |
| Cc1ncc(C(=O)Nc2cc(C(=O)Nc3ccc(C(C)(F)F)cn3)c(F)cc2C)s1 [Example 20, N-[5-[[5-(1,1-Difluoroethyl)pyridin-2-yl]carbamoyl]-4-fluoro-2-methylphenyl]-2-methyl-1,3-thiazole-5-carboxamide] | – | – | – | – | – | – | < 0.1 µM | > 1 µM | > 1 µM | < 0.1 µM | > 1 µM | > 1 µM |
| Cc1ncc(C(=O)Nc2cc(C(=O)Nc3ccc(C4CC4)nc3)c(F)cc2C)s1 [Example 24, N-[5-[(6-Cyclopropylpyridin-3-yl)carbamoyl]-4-fluoro-2-methylphenyl]-2-methyl-1,3-thiazole-5-carboxamide] | – | – | – | – | – | – | < 0.1 µM | > 1 µM | > 1 µM | < 0.1 µM | – | – |
| Cc1ncc(C(=O)Nc2cc(C(=O)N[C@@H]3C[C@H]3c3ccccc3)c(F)cc2C)s1 [Example 31, N-[4-Fluoro-2-methyl-5-[[(1R,2S)-2-phenylcyclopropyl]carbamoyl]phenyl]-2-methyl-1,3-thiazole-5-carboxamide] | – | – | – | – | – | – | < 0.1 µM | > 1 µM | > 1 µM | < 0.1 µM | > 1 µM | > 1 µM |
| Cc1ncc(C(=O)Nc2cc(C(=O)Nc3cnc(OC(F)(F)F)cn3)c(F)cc2C)s1 [Example 87, N-[5-(N-5-trifluoromethoxy-2-pyrazinylcarbamoyl)-4-fluoro-2-tolyl]-2-methyl-1,3-thiazole-5-carboxamide] | – | – | – | – | – | – | < 0.1 µM | > 1 µM | > 1 µM | < 0.1 µM | – | – |
| Cc1ncc(C(=O)Nc2cc(C(=O)Nc3cnc(CC4CC4)cn3)c(F)cc2C)s1 [Example 91, N-{5-[N-5-(cyclopropylmethyl)-2-pyrazinylcarbamoyl]-4-fluoro-2-tolyl}-2-methyl-1,3-thiazole-5-carboxamide] | – | – | – | – | – | – | < 0.1 µM | > 1 µM | > 1 µM | < 0.1 µM | – | – |
| Cc1cc(F)c(C(=O)NCC2(F)CCC2)cc1NC(=O)c1cnc(NC(=O)N2CCC2)s1 [Example 104, 2-(Azetidine-1-carbonylamino)-N-[4-fluoro-5-[(1-fluorocyclobutyl)methylcarbamoyl]-2-methylphenyl]-1,3-thiazole-5-carboxamide] | – | – | – | – | – | – | < 0.1 µM | 0.1 to 1 µM | > 1 µM | < 0.1 µM | – | – |
| COCCn1ccc(NC(=O)c2cc(NC(=O)c3cnc(N)s3)c(C)cc2F)n1 [Example 154, 2-Amino-N-[4-fluoro-5-[[1-(2-methoxyethyl)pyrazol-3-yl]carbamoyl]-2-methylphenyl]-1,3-thiazole-5-carboxamide] | – | – | – | – | – | – | < 0.1 µM | – | > 1 µM | < 0.1 µM | > 1 µM | > 1 µM |
| Cc1cc(F)c(C(=O)Nc2ccn(-c3ccccn3)n2)cc1NC(=O)c1cnc(N)s1 [Example 168, 2-Amino-N-[4-fluoro-2-methyl-5-[(1-pyridin-2-ylpyrazol-3-yl)carbamoyl]phenyl]-1,3-thiazole-5-carboxamide] | – | – | – | – | – | – | < 0.1 µM | > 1 µM | > 1 µM | < 0.1 µM | – | > 1 µM |
| Cc1cc(F)c(C(=O)NCC2(F)CC2)cc1NC(=O)c1cnc(N)s1 [Example 193, 2-Amino-N-[4-fluoro-5-[(1-fluorocyclopropyl)methylcarbamoyl]-2-methylphenyl]-1,3-thiazole-5-carboxamide] | – | – | – | – | – | – | < 0.1 µM | > 1 µM | > 1 µM | < 0.1 µM | – | – |
| Nc1ncc(C(=O)Nc2cc(C(=O)Nc3ccc(OC4CC4)cn3)c(F)cc2F)s1 [Example 222, 2-Amino-N-[5-[(5-cyclopropyloxypyridin-2-yl)carbamoyl]-2,4-difluorophenyl]-1,3-thiazole-5-carboxamide] | – | – | – | – | – | – | < 0.1 µM | – | > 1 µM | < 0.1 µM | > 1 µM | > 1 µM |

Source: patent US20250145606A1 (Arcus Biosciences, Inc., priority 2023, published 2025)
